# Source: PMC6156138, “Combination of a Latency-Reversing Agent With a Smac Mimetic Minimizes Secondary HIV-1 Infection in vitro” (Frontiers in Microbiology, 2018)
# Legend:
# [1] = tested on: TNF-α; experiment: TNF-α production in culture supernatants (ELISA); format: cell-based; settings: ACH-2 cells, PEP005 0–50 nM, 24 h
# Procedure: The expression of TNF-α mRNA was measured as previously described ([Zhang et al., 2014]). For the detection of supernatant TNF-α levels, ACH-2 cells (2.5 × 10^5 cells/ml) were incubated with various concentrations of PEP005 (0–50 nM) for 24 h at 37°C. Culture supernatants were harvested and centrifuged to remove cellular debris. The production of TNF-α was measured by using a Human TNF alpha Platinum ELISA Kit (eBioscience, Hatfield, United Kingdom) according to the manufacturer’s instructions. The sensitivity of the assay was 2.3 pg/ml.
# Supplementary file Data_Sheet_6.PDF: FIGURE S6 Elevation of supernatant TNF-α protein and mRNA levels in the presence of PEP005. (A) ACH-2 cells were exposed to PEP005, incubated for 24 h, supernatant was harvested, and TNF-α protein levels were measured using ELISA. (B) Changes in mRNA levels of TNF-α in PEP005-treated primary CD4^+ T-cells in eight HIV-1 patients (Supplementary Table S3). Cells were harvested after 24 h incubation. Click here for additional data file.
# [2] = tested on: U1 cells; experiment: FACS analysis of active caspase-3 expression; format: cell-based; settings: 24 h, birinapant 50 nM, PEP005 5 nM, TNF-α 10 ng/ml
# Procedure: Intracellular HIV-1 p24 levels and active form of caspase-3 expression were determined as previously described ([Hattori et al., 2009]; [Duro et al., 2010]; [Matsuda et al., 2015]). In brief, ACH-2 cells or U1 cells (2.5 × 10^5 cells/mL) were fixed with 1% paraformaldehyde/phosphate buffered saline (PBS) for 20 min and were permeabilized with Flow Cytometry Perm Buffer (TONBO biosciences, San Diego, CA, United States). After incubation on ice for 5 min, the cells were stained with anti-HIV-1 p24 (24-4)-FITC mAb (Santa Cruz Biotechnology, Dallas, TX, United States) and/or with Alexa Fluor 647-conjugated anti-active caspase-3 mAb (C92-605) (BD Pharmingen, San Diego, CA, United States) for 30 min on ice. Cells were then analyzed on a BD FACSVerse flow cytometer (BD Biosciences, Franklin Lakes, NJ, United States). The corrected data were analyzed with FlowJo software (Tree Star, San Carlos, CA, United States).
# FIGURE 3 (A,B) ACH-2 (A) and U1 cells (B) were treated with birinapant (50 nM), PEP005 (5 nM), birinapant plus PEP005, TNF-α (10 ng/ml), and intracellular expression of caspase-3 was examined after 24 h of incubation. The percentage of active caspase-3 cells was determined by comparison with unstimulated cells. (C) ACH-2 cells after 24 h of PEP005 (0∼50 nM) treatment with or without birinapant (50 nM) were separately analyzed in p24^+ and p24^- populations for caspase-3 expression.
# [3] = tested on: latent HIV-1-infected U1 cells; experiment: HIV reactivation from latent cells: intracellular HIV-1 RNA (qRT-PCR); format: cell-based; settings: 24 h (Figure 1D)
# Procedure: (§1) The reactivation of HIV-1 from latently infected cells was determined by the measurement of supernatant p24 antigen and intracellular HIV-1 RNA levels. ACH-2 cells or U1 cells (5 × 10^5 cells/mL) were placed in 96-well plates, and then the cells were incubated with different concentrations of drugs for 24 h to extract RNA and for 48 h to collect the supernatant. The increase in supernatant p24 antigen levels was measured using […] G1200 (Fujirebio, Tokyo, Japan). The total RNA was extracted using an RNeasy Mini Kit (Qiagen, Hilden, Germany), following the manufacturer’s protocols. The cDNA was synthesized using PrimeScript RT Master Mix (Takara Bio, Shiga, Japan), and quantitative real-time PCR analyses for the intracellular HIV-1 RNA were carried out with PowerUp^TM SYBR Green Master Mix (Applied Biosystems, Foster City, CA, United States). The oligonucleotide primers used were as follows: 5′-[…]-3′ (forward) and 5′-[…]-3′ (reverse) for HIV-RNA detection; 5′-[…]-3′ (forward) and 5′-[…]-3′ (reverse) for β-actin. The HIV-RNA expressions were normalized with that of β-actin, which was indicated as the relative quantity, and the increase in HIV-1 RNA levels in the presence of a drug was compared with that without a drug.
# (§2) FIGURE 1 (A,B) The increase in viral production from ACH-2 cells (A) and U1 cells (B) was examined by supernatant p24 antigen levels on day 2. […]
# [4] = tested on: latent HIV-1-infected ACH-2 cells; experiment: as above; format: cell-based; settings: 24 h (Figure 1C)
# Procedure: as §1, §2
# [5] = tested on: J1.1 cells; experiment: Virus production in J1.1 cells (viral RNA copies in supernatant); format: cell-based, HIV-1; settings: birinapant combined with TNF-α 20 ng/mL, 48 h
# Procedure: Cells were treated with birinapant with ( [drawing 1] ) or without ( [drawing 2] ) TNF-α (20 ng/mL). After 48 h incubation, culture supernatant was harvested, and viral RNA was extracted. Viral copy numbers in culture supernatant were measured by real-time RT-PCR. Click here for additional data file.
Structure (SMILES),supernatant TNF-α level [1],percentage of active caspase-3 cells [2],intracellular HIV-1 mRNA levels [3],intracellular HIV-1 mRNA levels [4],virus production (viral copy numbers in culture supernatant) [5]
"C/C=C(/C)C(=O)O[C@H]1C(C)=C[C@]23C(=O)[C@@H](C=C(CO)[C@@H](O)[C@]12O)[C@H]1[C@@H](C[C@H]3C)C1(C)C [PEP005, ingenol-3-angelate]",elevated,10.8%,,,
CC[C@H](NC(=O)[C@H](C)NC)C(=O)N1C[C@@H](O)C[C@H]1Cc1c(-c2[nH]c3cc(F)ccc3c2C[C@@H]2C[C@H](O)CN2C(=O)[C@H](CC)NC(=O)[C@H](C)NC)[nH]c2cc(F)ccc12 [Birinapant],,,only had a minor effect on HIV-1 reactivation,only had a minor effect on HIV-1 reactivation,suppresses virus production
